System: C2C12 myoblasts
Assay: Expression of UPRmt markers, prohibitins and cell cycle regulators in C2C12 myoblasts treated with TAP (FIG. 3)
Format: cell-based
Settings: 50 μg/ml TAP, different treatment periods (FIG. 3)
Experimental: Total RNA was extracted from MuSCs by sorting cells directly into TriPure RNA isolation reagent (Roche) or from cultured C2C12 myoblasts using TriPure reagent according to the product manual. Total RNA was transcribed to cDNA using QuantiTect Reverse Transcription Kit (Qiagen). Expression of selected genes was analyzed using the LightCycler480 system (Roche) and LightCycler® 480 SYBR Green I Master reagent (Roche). The acidic ribosomal protein 36b4 gene (ribosomal protein, large, P0, Rplp0) was used as housekeeping reference. C2C12 cells were lysed in a buffer composed of 50 mM Tris, 150 mM KCl, EDTA 1 mM, NP40 1%, nicotinamide 5 mM, sodium butyrate 1 mM and protease inhibitors cocktail (Roche) at pH 7.4. Proteins were separated by SDS-PAGE and transferred onto nitrocellulose membranes. Blocking and antibody incubations were performed in 3% BSA. The following primary antibodies were used: anti-cleavage caspase 3 (Cell Signalling); Anti-γH2AX (Millipore); anti-β-actin (Sigma). All secondary antibodies were from Jackson Immunoresearch. Antibody detection reactions were developed by enhanced chemiluminescence (Advansta, CA, USA) using x-ray films or imaged using the c300 imaging system (Azure Biosystems). The following primary antibodies were used: anti-HSP60 (Enzo Life Science); anti-PHB (Biolegend); anti-PHB2 (Santa Cruz); anti-CKD4 (Novus biologicals); anti-CCND1 (Santa Cruz); anti-CCND3 (Santa Cruz); anti-HSP90 (BD Biosciences); HSP70 (Abcam); anti-MT-CO1 (Biolegend); anti-ATP5A (Biolegend); anti-Grp78 (Abcam); and anti-CLPP (Sigma).

CS(=O)(=O)c1ccc([C@@H](O)[C@@H](CO)NC(=O)C(Cl)Cl)cc1 [thiamphenicol]
UPR^mt induction: induction
cell cycle gene expression / cell cycle regulators: induced
mitonuclear imbalance: induces
prohibitins expression: induced
UPR^mt induction (listed as TAP): induces
cell cycle gene expression / cell cycle regulators (listed as TAP): induces

From patent publication US20190054098A1, “AGENTS AND METHODS USING THEREOF FOR THE PREVENTION AND TREATMENT OF STEM CELLS SENESCENCE” (ECOLE POLYTECHNIQUE FEDERALE DE LAUSANNE (EPFL), priority 2015, published 2019)
